Laboratory results: ChEMBL document CHEMBL3352273, “Synthesis and biological evaluation of novel thieno[2,3-d]pyrimidine-based FLT3 inhibitors as anti-leukemic agents” (Eur J Med Chem, 2014)

Assays:
cells [1] = settings: Homo sapiens, THP-1, 48 h
Description: Growth inhibition of human THP1 cells after 48 hrs by XTT assay

K562 = assay: cells; settings: Homo sapiens, K562, 48 h
Description: Growth inhibition of human K562 cells after 48 hrs by XTT assay

cells [2] = settings: Homo sapiens, HL-60, 48 h
Description: Growth inhibition of human HL60 cells after 48 hrs by XTT assay

cells [3] = settings: Homo sapiens, MV4-11, 48 h
Description: Growth inhibition of human MV411 cells after 48 hrs by XTT assay

[4] = Retention time of the compound by HPLC method; type: physicochemical
[5] = molecular target: T1, Receptor-type tyrosine-protein kinase FLT3 (Homo sapiens, UniProt P36888)
T1 sequence (P36888 whole entry): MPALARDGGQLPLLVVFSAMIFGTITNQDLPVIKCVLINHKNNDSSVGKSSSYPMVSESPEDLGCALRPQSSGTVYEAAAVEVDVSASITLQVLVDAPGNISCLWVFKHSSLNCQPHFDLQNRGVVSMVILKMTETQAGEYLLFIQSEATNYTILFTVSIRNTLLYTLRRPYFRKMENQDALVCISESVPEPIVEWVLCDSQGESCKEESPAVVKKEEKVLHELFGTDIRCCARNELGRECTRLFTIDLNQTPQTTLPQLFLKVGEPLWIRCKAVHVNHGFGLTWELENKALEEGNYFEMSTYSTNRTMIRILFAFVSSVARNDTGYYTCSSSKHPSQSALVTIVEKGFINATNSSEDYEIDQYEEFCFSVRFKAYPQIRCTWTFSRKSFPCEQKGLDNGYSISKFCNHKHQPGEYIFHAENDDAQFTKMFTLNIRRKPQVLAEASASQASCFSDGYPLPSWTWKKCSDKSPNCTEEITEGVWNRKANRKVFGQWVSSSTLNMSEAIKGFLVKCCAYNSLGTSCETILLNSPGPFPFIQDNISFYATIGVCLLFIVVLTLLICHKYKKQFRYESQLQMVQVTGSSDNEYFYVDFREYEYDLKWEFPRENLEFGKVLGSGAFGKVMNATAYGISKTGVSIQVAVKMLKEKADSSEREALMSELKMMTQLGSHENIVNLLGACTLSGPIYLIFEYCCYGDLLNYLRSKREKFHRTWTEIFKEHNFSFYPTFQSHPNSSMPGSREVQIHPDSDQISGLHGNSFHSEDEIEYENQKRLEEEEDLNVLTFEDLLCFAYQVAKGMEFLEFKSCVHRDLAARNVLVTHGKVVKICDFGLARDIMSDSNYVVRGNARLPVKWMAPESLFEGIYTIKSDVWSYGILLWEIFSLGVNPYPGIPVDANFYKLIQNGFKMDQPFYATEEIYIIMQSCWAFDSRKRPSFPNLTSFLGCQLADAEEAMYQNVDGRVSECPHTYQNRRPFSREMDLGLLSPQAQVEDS
Description: Inhibition of human FLT3 using 10 uM ATP

## CC1=CC(=O)N(Nc2nc(-c3cccs3)nc3sc(Cc4ccc(O)cc4)c(C)c23)C1=O
Cells [1]
  GI50: 948 nM
K562
  GI50: 880 nM
Cells [2]
  GI50: 213 nM
Cells [3]
  GI50: 103 nM

## COC(=O)c1sc2nc(-c3cccs3)nc(NN3C(=O)C=C(C)C3=O)c2c1C
Cells [1]
  GI50: 172 nM
K562
  GI50: 30 nM
Cells [2]
  GI50: 136 nM
[4]
  Retention_time: 6.04 min
Cells [3]
  GI50: 86 nM

## COc1sc2nc(-c3cccs3)nc(NN3C(=O)C=C(C)C3=O)c2c1C
Cells [1]
  GI50: 906 nM
K562
  GI50: 1460 nM
Cells [2]
  GI50: 240 nM
[4]
  Retention_time: 5.61 min
Cells [3]
  GI50: 100 nM

## CC1=CC(=O)N(Nc2nc(Cc3ccccc3)nc3scc(-c4cccs4)c23)C1=O
Cells [1]
  GI50: 6660 nM
K562
  GI50: 3520 nM
Cells [2]
  GI50: 1520 nM
[5]
  IC50: Not Active
[4]
  Retention_time: 7.09 min
Cells [3]
  GI50: 3830 nM

## CC1=CC(=O)N(Nc2nc(-c3cccs3)nc3sc(-c4ccc(O)cc4)c(C)c23)C1=O
Cells [1]
  GI50: 600 nM
K562
  GI50: 145 nM
Cells [2]
  GI50: 221 nM
[4]
  Retention_time: 4.93 min
Cells [3]
  GI50: 131 nM

## CC1=CC(=O)N(Nc2nc(-c3cccs3)nc3scc(-c4cccs4)c23)C1=O
Cells [1]
  GI50: 2670 nM
K562
  GI50: 5550 nM
Cells [2]
  GI50: 746 nM
[5]; read-out: IC50
  IC50: 69 nM
[4]
  Retention_time: 8.11 min
Cells [3]
  GI50: 320 nM

## COc1ccc(-c2sc3nc(-c4cccs4)nc(NN4C(=O)C=C(C)C4=O)c3c2C)cc1
Cells [1]
  GI50: 902 nM
K562
  GI50: 154 nM
Cells [2]
  GI50: 624 nM
[4]
  Retention_time: 10.06 min
Cells [3]
  GI50: 135 nM

## CC1=CC(=O)N(Nc2nc(-c3ccc(N)cc3)nc3scc(-c4ccccc4)c23)C1=O
Cells [1]
  GI50: 4110 nM
K562
  GI50: 8160 nM
Cells [2]
  GI50: 3710 nM
[4]
  Retention_time: 5.16 min
Cells [3]
  GI50: 2100 nM

## COCc1sc2nc(-c3cccs3)nc(NN3C(=O)C=C(C)C3=O)c2c1C
Cells [1]
  GI50: 1780 nM
K562
  GI50: 1260 nM
Cells [2]
  GI50: 266 nM
[4]
  Retention_time: 10.19 min
Cells [3]
  GI50: 115 nM

## CC1=CC(=O)N(Nc2nc(-c3ccc(N(C)C)cc3)nc3scc(-c4ccccc4)c23)C1=O
Cells [1]
  GI50: 1630 nM
K562
  GI50: 1740 nM
Cells [2]
  GI50: 2190 nM
[5]
  IC50: Not Active
[4]
  Retention_time: 10.86 min
Cells [3]
  GI50: 755 nM

## CC1=CC(=O)N(Nc2nc(-c3ccc(C)s3)nc3scc(-c4cccs4)c23)C1=O
Cells [1]
  GI50: 2800 nM
K562
  GI50: 1920 nM
Cells [2]
  GI50: 403 nM
[4]
  Retention_time: 6.17 min
Cells [3]
  GI50: 775 nM

## NNc1nc(-c2cccs2)nc2scc(-c3cccs3)c12
Cells [1]
  GI50: > 10000 nM
K562
  GI50: > 10000 nM
Cells [2]
  GI50: > 10000 nM
Cells [3]
  GI50: > 10000 nM

## COc1ccc(-c2nc(NN3C(=O)C=C(C)C3=O)c3c(-c4ccccc4)csc3n2)cc1
Cells [1]
  GI50: 2200 nM
K562
  GI50: 703 nM
Cells [2]
  GI50: 1310 nM
[5]
  IC50: Not Active
[4]
  Retention_time: 9.76 min
Cells [3]
  GI50: 407 nM

## COC(=O)Cc1sc2nc(-c3cccs3)nc(NN3C(=O)C=C(C)C3=O)c2c1C
Cells [1]
  GI50: 2900 nM
K562
  GI50: 483 nM
Cells [2]
  GI50: 656 nM
Cells [3]
  GI50: 91 nM

## Cl.c1csc(-c2nc(N3CCNCC3)c3c(-c4cccs4)csc3n2)c1
Cells [1]
  GI50: > 10000 nM
K562
  GI50: > 10000 nM
Cells [2]
  GI50: > 10000 nM
[4]
  Retention_time: 4.39 min
Cells [3]
  GI50: > 10000 nM

## CC1=CC(=O)N(Nc2nc(-c3cccs3)nc3scc(-c4ccccc4)c23)C1=O
Cells [1]
  GI50: 155 nM
K562
  GI50: 74 nM
Cells [2]
  GI50: 758 nM
[4]
  Retention_time: 8.39 min
Cells [3]
  GI50: 233 nM

## COc1cc2c(N3CCN(C(=O)Nc4ccc(OC(C)C)cc4)CC3)ncnc2cc1OCCCN1CCCCC1 [TANDUTINIB]
Cells [1]
  GI50: > 10000 nM
K562
  GI50: > 10000 nM
Cells [2]
  GI50: > 10000 nM
Cells [3]
  GI50: 8760 nM

## CC1=CC(=O)N(Nc2nc(-c3ccccc3)nc3scc(-c4cccs4)c23)C1=O
Cells [1]
  GI50: 3730 nM
K562
  GI50: 6300 nM
Cells [2]
  GI50: 862 nM
[5]; read-out: IC50
  IC50: 1600 nM
[4]
  Retention_time: 6.15 min
Cells [3]
  GI50: 836 nM

## CC1=CC(=O)N(Nc2nc(-c3cccs3)nc3sc(-c4ccc([N+](=O)[O-])cc4)c(C)c23)C1=O
Cells [1]
  GI50: 846 nM
K562
  GI50: 1880 nM
Cells [2]
  GI50: 418 nM
[4]
  Retention_time: 9.44 min
Cells [3]
  GI50: 112 nM

## CC1=CC(=O)N(Nc2nc(-c3cccs3)nc3sc(C(N)=O)c(C)c23)C1=O
Cells [1]
  GI50: 2690 nM
K562
  GI50: 2780 nM
Cells [2]
  GI50: 7800 nM
[4]
  Retention_time: 5.72 min
Cells [3]
  GI50: 193 nM

## CC1=CC(=O)N(Nc2nc(-c3cccs3)nc3sc(-c4cccc(O)c4)c(C)c23)C1=O
Cells [1]
  GI50: 107 nM
K562
  GI50: 3 nM
Cells [2]
  GI50: 383 nM
Cells [3]
  GI50: 123 nM

## CC1=CC(=O)N(Nc2nc(Cc3cccs3)nc3scc(-c4cccs4)c23)C1=O
Cells [1]
  GI50: 6260 nM
K562
  GI50: > 10000 nM
Cells [2]
  GI50: 725 nM
[5]
  IC50: Not Active
Cells [3]
  GI50: 2010 nM

## CC1=CC(=O)N(Nc2nc(-c3cccs3)nc3sc(CO)c(C)c23)C1=O
Cells [1]
  GI50: 2600 nM
K562
  GI50: 3840 nM
Cells [2]
  GI50: 712 nM
[4]
  Retention_time: 10.19 min
Cells [3]
  GI50: 92 nM
